Data on five compounds can be found in patent US20030153080A1, “Methods for improving conifer embryogenesis” (priority 2002, published 2003).

What all share (type): cell-based
For experiment [1], the system named is loblolly pine megagametophytes. Put plainly: Zygotic initiation test with megagametophyte explants (extrusion and initiation). The settings on record: for early extrusion and embryo expansion: supplement present in the medium; for effect on extrusion and initiation efficiency: 0.1 mg/L alone (media 1357, 1359), compared with medium 1391. As for the experimental part: (§1) Megagametophyte explants were isolated for zygotic initiation tests from loblolly pine summer cones when embryos were at approximately stage 2-4. Seeds were collected from four individual trees of diverse genotypes. Extracted seeds were soaked in running water for 10 minutes, agitated in 10% liquinox supplemented with 2 drops of Tween 20/L (polyoxyethylene-sorbitan monolaurate) for 10 minutes, and rinsed with water for 30 minutes. Seeds were sterilized in a laminar flow hood by agitating in 20% hydrogen peroxide for 10 minutes and rinsing with sterile deionized water. The seed coats, integuments and nucellus were removed to isolate the megagametophytes. Culturing was performed in 24-well culture plates with each well having an approximate volume of 3.0 ml. Two milliliters of media were added into each well.
Zygotic and somatic initiation tests were conducted to determine the effect of alpha-ketoglutaric acid in combination with vitamins B12 and E on initiation. Explants of loblolly pine were obtained and treated as described in Example 1 with the following modifications. Each replication consisted of ten adjacent wells on a multiwell plate, with one megagametophyte per well. Ten replications, for a total of 100 seeds, were performed per treatment for each cone collection.
According to the protocol of Example 1, four loblolly pine cone collections of approximately 500 seeds per collection with embryos at stages 2-4 were selected. Seeds were sterilized and dissected. […] Average initiation across the cone collections was roughly 30% for embryos grown on the control medium and roughly 36% for embryos grown on the test medium.

In experiment [2] the test system is loblolly pine stage 2 somatic embryos. Put plainly: Somatic embryo capture test in multiplication medium (colony diameter). As for the experimental part:
(§2) For somatic initiation tests, embryos were selected from a liquid suspension culture supplemented with abscisic acid. (Table 1B, medium 16). Each replication consisted of ten adjacent wells on a multiwell plate, with a single stage 2, somatic embryo per well, providing two replications per multiwell plate. Four replications (for a total of 40 explants) were performed per treatment for each genotype. The plates were wrapped in Parafilme wrap to minimize evaporation and incubated at 22-24° C. in the dark for 4-6 weeks or until colony diameters were roughly ¾-1 cm. Typically, a single stage 2 embryo is approximately 0.1 mm in size. During this time period, the single embryo multiplies to form an embryogenic tissue mass of about 5-9 mm in diameter depending on the particular conifer, culture genotype, medium contents, and time. Changes in tissue diameters were used to assay the effects of vitamins or organic acid on early-stage embryo growth and multiplication. Colony diameters were measured using a dissecting scope ocular micrometer.
Tests were conducted to determine the effect on somatic embryo capture of a medium supplemented with individual organic acids, such as alpha-ketoglutaric acid. Embryos of loblolly pine were obtained and treated as described in Example 1. Individual stage 2 embryos were selected from liquid maintenance medium and placed in multiplication medium (Table 1B, medium 1250).
Embryos of loblolly pine were obtained and treated as described in Example 1. Individual stage 2 embryos were selected from liquid maintenance medium and placed in multiplication medium (Table 1B, medium 1250). Stage 2 embryos were likewise placed in medium 1250 supplemented with 60.7 mg/L pyruvic acid (Table 1C, medium 1635). All cultures were incubated in the dark at 24-26° C. for 4-5 weeks.
A representative example for somatic capture uses embryos of loblolly pine obtained and treated as described in Example 1. Individual stage 2 embryos were selected from liquid maintenance medium and placed in multiplication medium (Table 1B, medium 1250). Compared to this control, the addition of 0.1 mg/L vitamin B12 alone to the multiplication medium (Table 1B, medium 1250) increased mean colony diameter by approximately 5%. Likewise, the addition of 100 mg/L alpha-ketoglutaric acid alone to the […] (Table 1B, medium 1250) increased mean colony diameter by approximately 10%.
Individual stage 2 embryos were selected from liquid maintenance medium and placed in multiplication control medium (Table 1B, medium 1250), as well as medium 1638, which is supplemented with 0.1 mg/L vitamin B12, 0.1 mg/L vitamin E, 100 mg/L alpha-ketoglutaric acid and 60.7 mg/L pyruvic acid (Table 1C, medium 1638). […]

The subject of experiment [3] is loblolly pine somatic embryos. Briefly: Single somatic embryo initiation test (colony diameter). The settings on record: for Mean Colony Diameter: 0.1 mg/L added to medium 1253, measured at 4½ weeks. As for the experimental part:
as §2
Osmolarity and pH of the culture media were monitored to ensure that these factors were similar throughout various conditions, and therefore, were not contributing to the observed differences. To analyze the results, the ANOVA statistical analysis was performed.
Single somatic embryo initiation tests were conducted to determine the effect of various vitamins on initiation. Embryos of loblolly pine were obtained and treated as described in Example 1. Isolated explants were incubated either in a control medium (Table 1A, medium 1253), or in the same medium supplemented with the K&M vitamin mixture (Table 1A, medium 1335). […] Evaluation of specific components of the K&M vitamin mixture lead to identification of the components responsible for the observed increase.
Single somatic embryo initiation tests were conducted to determine the effect of alpha-ketoglutaric acid on initiation in loblolly pine. Embryos of loblolly pine were obtained and treated as described in Example 1. The inventors note that a modification to the protocol detailed in Example 1 may be required due to the addition of an organic acid to the base medium. The addition of an acid, such as alpha-ketoglutaric acid, causes media pH to drop and therefore, all media supplemented with alpha-ketoglutaric acid were titrated to pH 5.7 before adding them to the cultures. Titration was performed with KOH, which increased potassium levels in the media by about 0.7 mM.
Single somatic embryo initiation tests were conducted according to the protocol described in Example 1. The inventors note that modification to the protocol detailed in Example 1 may be required due to the addition of an organic acid to the base medium. In culture medium containing 60.72 mg/L pyruvic acid (Table 1B, medium 1462) mean tissue diameter was 7.1 mm compared to a mean tissue diameter of 6.1 for embryos grown on the control medium 1253 indicating a positive correlation between embryo exposure to pyruvic acid and overall initiation. Iterations of this example in loblolly pine yielded similar percentage increases in initiation, e.g., a 7.2 mm mean tissue diameter for medium containing 0.52 mM pyruvic acid compared to 6.5 mm mean tissue diameter in the control medium. As shown herein, this effect is further enhanced by the combinations of multiple organic acids.

Experiment [4] relates to Douglas Fir zygotic embryos. Briefly: Zygotic embryo initiation test. As for the experimental part:
as §1
Embryos of Douglas Fir were obtained, and treated as described in Example 1.
A further example is provided for Douglas Fir. Douglas Fir zygotic embryos were tested for improved initiation when exposed to cultures containing pyruvic acid according to the protocol described in Example 1. Control medium 121 (Table 1C) was supplemented with 60.7 mg/L pyruvic acid to create the test medium (Table 1C, medium 1625). After incubation for eight weeks in the dark, initiation was scored. For tissue exposed to pyruvic acid, mean initiation rates were approximately 35% compared to 32% for the untreated embryos.

Experiment [5] concerns Norway Spruce somatic embryos. Briefly: Single somatic embryo initiation test (tissue diameter). The settings on record: 60.7 mg/L (medium 1664); control medium 1662 gave 2.8 mm. As for the experimental part:
as §2
Tissue isolated and prepared according to Example 1 was incubated in a medium containing 0.1 mg/L of both vitamin B12 and E for 4-5 weeks in the dark at 24-26° C. (Table 1 D, medium 1665). Tissue cultured in medium 1665 achieved an average diameter of 3.1 mm compared to tissue cultured in the control medium, which achieved an average diameter of 2.8 mm. […]

For the compound `O=C(O)CCC(=O)C(=O)O` [alpha-ketoglutaric acid], the “early extrusion and embryo expansion” value in experiment [1] is given as “more robust”. In addition, the “increase in mean colony diameter vs medium 1250” value in experiment [2] (100 mg/L alpha-ketoglutaric acid alone) is “approximately 10%”. The “increase in mean colony diameter” value in experiment [2] (only additive to control medium 1250, between 100 and 200 mg/L) is 5-6%. Moreover, the “levels of initiation higher than control as measured by mean colony diameter” value in experiment [3] (100 ppm (medium 1342) vs control medium 1253, titrated to pH 5.7) was determined as 20%. The “levels of initiation vs control medium 121” value in experiment [4] (100 mg/L (medium 1624)) was “higher levels of initiation”.

`Nc1ccc(C(=O)O)cc1` [p-aminobenzoic acid]: the “increase in mean colony diameter as compared to the control” value in experiment [3] (0.2 ppm (medium 1434) vs control medium 1253) is given as 32%. This compound also yielded an initiation in experiment [4] (20 mg/L (medium 1627), base medium 121 gave 32%) of 39%.

Turning to `CC(=O)C(=O)O` [pyruvic acid], in experiment [2] (60.7 mg/L in medium 1250 (medium 1635), dark, 24-26° C., 4-5 weeks, control 3.3 mm), the average diameter result is given as “roughly 3.7 mm”. Besides, the mean tissue diameter stood at 7.2 mm in experiment [3] (0.52 mM, iteration of the example, control medium gave 6.5 mm) and 7.1 mm in experiment [3] (60.72 mg/L (medium 1462), control medium 1253 gave 6.1). Also, in experiment [4] (60.7 mg/L (medium 1625), eight weeks in the dark, untreated 32%), the mean initiation rates result is “approximately 35%”. The compound further showed a mean diameters in experiment [5] of 3.6 mm.

vitamin B12 [reference compound]: the “effect on extrusion and initiation efficiency” value in experiment [1] was “some, but a lesser effect”. In addition, the “increase in mean colony diameter vs medium 1250” value in experiment [2] (0.1 mg/L vitamin B12 alone) is listed as “approximately 5%”. Moreover, the “Mean Colony Diameter” value in experiment [3] was found to be 4.88 mm.

Take vitamin E: in experiment [1], the “effect on extrusion and initiation efficiency” value is “some, but a lesser effect”; the “early extrusion and embryo expansion” value is reported as “more robust”. Moreover, the “Mean Colony Diameter” value in experiment [3] was found to be 4.65 mm.
